Measured values published in patent US12636378B2, “Targeted antigen delivery system and uses thereof” (SRI International, priority 2020, dated 2026).
“Also recorded” adds a separate entry of the source. Read-outs that look alike come from different tables or passages of the source. No end group written: not given here.

Columns and labels:
[1] = system: H358 cells; assay: Quantitative flow cytometry uptake assay, H358; assay type: cell-based, human
Protocol: H358 cell line data has been not included in FIG. 6 for clarity due to differences in the Y axis.
(§1) A quantitative flow cytometry assay was performed that measures the average number of molecules of peptide internalized per cell. […] The number of molecules internalized ranges from 1×10^5 molecules/cell for H358 cells to 8×10^5 for H1993 cells, corresponding to intracellular concentrations of 100-800 nM. The rate of uptake at 6 hours is not saturated and it appears that peptide continues to enter the cell past this time (FIG. 5 and FIG. 6). This indicates either high receptor numbers which have not yet saturated or rapid recycling of the receptor that allows for continual delivery, reaching high intracellular concentrations of the peptide.

[2] = system: 4T1 cells implanted in mammary fat pads; details: nIR dye-labelled peptide
[3] = system: breast cancer lines (MCF-7, MDA-MB-231and 4T1); assay: Binding to breast cancer lines; assay type: cell-based
From the text: (§2) The final optimized SRI_MGS5_V1 peptide, SRI_MGS5_V2, has the following characteristics.

[4] = system: GL261 cells implanted in the brain; details: fluorescent dye-labelled peptide
[5] = system: glioma cell line (GL-261); assay: Flow cytometry binding and internalization in GL261 cells; assay type: cell-based, mouse
From the text: as §2

[6] = system: 4T1 cells; assay: Quantitative flow cytometry binding and internalization in 4T1 cells; assay type: cell-based, mouse
[7] = system: H1993 NSCLC cells; assay: Confocal microscopy, co-localization of peptide with autophagic vesicles; assay type: cell-based, human; details: 100 nM
Protocol: FIGS. 7A-7C show an example of co-localization of SRI_MGS5_V2 peptides with autophagic vesicles (A) H1993 cells treated with 100 nM of SRI_MGS5_V1 peptide (panel A) and optimized SRI_MGS_V2 (panels B and C) conjugated with Alexa Fluor 647 (Red). Autophagosomes are stained with LC3B antibody (Green). The regions corresponding to co-localization of the peptide and autophagic vesicles are shown in yellow.
(§3) Therefore, accumulation in autophagosomes is a necessary component for success of this immunotherapy.

[8] = system: LLC1 cells; assay: Co-culture assay, liposome treated LLC1 cells, cytokine ELISA; assay type: cell-based, murine
Protocol: TALL treated LLC1 cells were co-cultured with HLA-A2 positive PBMCs and culture supernatants were analyzed for TNF-α a secretion. […] Concentration of all liposomes used in this assay corresponded to ≈4.5 mg/ml of phosphatidyl choline. Free H250 peptide control is incubated at 5 μmol/L.
TALL treated LLC1 cells were co-cultured with HLA-A2 positive PBMCs and culture supernatants were analyzed for IFN-γ secretion. […] Concentration of all liposomes used in this assay corresponded to ≈4.5 mg/ml of phosphatidyl choline. Free H250 peptide control is incubated at 5 μmol/L.
(§4) The liposomes were loaded with the H250 antigenic peptide and SRI_MGS5_V2 or SRI_MGS5_V1 was conjugated to the external face of the liposome via maleimide chemistry. The liposomes were incubated with H1993 cells followed by co-culture with peripheral blood mononuclear cells (PBMCs) from an anonymous donor that is haplotype HLA A2+ and vaccinated against measles. […] More experiments testing different liposome variants and assessing TNF-α and INF-γ in co-culture were performed. […] The same experiments were completed using mouse LLC1 cells as the antigen presenting cells and lymph node lymphocytes (LNL) from C57B1/6 mice that had been vaccinated against HA.

[9] = system: Multiple Different Cancer Types; assay: Functional presentation of antigenic peptide in multiple cancer types; assay type: cell-based
From the text: Treatment groups: A—MGS5_V2 Targeted Liposome Loaded with H250 Antigen; B—Positive Control: Cells Pulsed with Free H250 Antigen; C—No MGS on Liposome Loaded with H250 Antigen; D—Blank Liposomes—no H250 Antigen.

[10] = system: Pan02 cells; details: fluorescent dye-labelled peptide
[11] = system: LLC1 tumors; details: 15 μg I.V., Alexa Fluor 750 conjugate, 72 hours
Protocol: The LLC1 tumors were grown until palpable (≈500 mm^3) at which point mice were treated I.V. with 15 μg of SRI_MGS5_V2 conjugated to Alexa Fluor 750. Images were taken daily for 72 hours, after which the animal was sacrificed, and its organs were assessed to determine localization of the targeting peptide.

[12] = system: subcutaneous H1993 NSCLC tumor; assay: NIR imaging of dye-labeled peptides in mice with subcutaneous H1993 tumor; assay type: in vivo; details: for tumor accumulation / tumor targeting: Alexa Fluor 750 conjugate, tail vein injection
Protocol: The peptides were conjugated to Alexa Fluor 750 dye and […] injected intravenously via the tail vein into mice bearing a subcutaneous H1993 NSCLC tumor on their right flank.
SRI_MGS5_V2 and parental SRI_MGS5_V1 were labeled with the near-infrared dye Alexa Fluor 750 for imaging. […] For example, SRI_MGS5_V2 has 3-fold lower signal in the lung compared to SRI_MGS5_V1. […] Importantly, the corresponding nonacetylated versions of each peptide were evaluated as well.

[13] = system: three human NSCLC cell lines; assay: Quantitative flow cytometry uptake assay, NSCLC cell lines; assay type: cell-based
Protocol: Uptake is represented as an average number of peptides per cell. Error bars are smaller than the symbol for some points.
as §1

[14] = system: H1993 cells; assay: Co-culture assay, liposome treated H1993 cells with HLA-A2 positive PBMCs, cytokine ELISA; assay type: cell-based, human
Protocol: TALL treated H1993 cells were co-cultured with HLA-A2 positive PBMCs and culture supernatants were analyzed for TNF-α secretion. Concentration of all liposomes used in this assay corresponded to ≈4.5 mg/ml of phosphatidyl choline. Free H250 peptide control is incubated at 5 μmol/L.
TALL treated H1993 cells were co-cultured with HLA-A2 positive PBMCs and culture supernatants were analyzed for IFNγ secretion. Concentration of all liposomes used in this assay corresponded to ≈4.5 mg/ml of phosphatidyl choline. Free H250 peptide control is incubated at 5 μmol/L.
as §4

[15] = system: LLC1 cells; assay: Confocal microscopy, autophagic vesicles in LLC1 cells; assay type: cell-based, mouse
From the text: as §3

[16] = system: H1993 cells
[17] = system: pancreatic cancer line (Pan02); assay: Flow cytometry binding and internalization in Pan02 cells; assay type: cell-based, mouse
From the text: as §2

[18] = system: NSCLC lines; assay: Flow cytometry binding to NSCLC lines; assay type: cell-based, human
From the text: as §2

[19] = system: normal control human lung epithelial cell line (HBEC); assay: Binding to normal lung epithelial cells; assay type: cell-based
From the text: as §2

[20] = system: H1993 cells; assay: Quantitative flow cytometry uptake assay, H1993; assay type: cell-based, human
Protocol: as §1

[21] = system: panel of cancer cell lines; assay: Binding in a panel of cancer cell lines; assay type: cell-based
[22] = HLA A*02:01 patients; cited from earlier work
[23] = Physicochemical properties of peptides (hydrophobicity, solubility, stability)
[24] = system: cancer cells; details: cited from earlier work
[25] = system: normal control human lung epithelial cell line (HBEC); details: cited from earlier work

Substance: (CH3CO-LQWRRNFGVWARYRL-PEG11)2K-X (not fully specified; N-acetyl, PEG11, dimerized on lysine core, tag X; targeting sequence) [SRI_MGS5_V2]
- number of molecules internalized [1]: 1×10^5 molecules/cell
- tumor localization, orthotopic 4T1 [2]: homes to tumors
- tumor localization, orthotopic 4T1 ([2]; listed as MGS5_V2): localized within the tumors
- binding to breast cancer lines [3]: shown to bind; also recorded: binds
- tumor localization, orthotopic GL261 [4]: homes to tumors
- tumor localization, orthotopic GL261 ([4]; listed as MGS5_V2): targets GL261 cells
- binding (and internalization) in GL261 cells [5]: shown to bind; also recorded: binds
- binding (and internalization) in GL261 cells ([5]; listed as MGS5_V2): concentration dependent binding and internalization
- binding and internalization in 4T1 cells [6]: concentration dependent binding and internalization
- accumulation in autophagic vesicles compared to parental MGS5_V1 [7]: much greater extent
- presentation of encapsulated immunogenic peptide in HLA class I molecules (IFN-γ ELISA) [8]: facilitates presentation
- presentation of encapsulated immunogenic peptide in HLA class I molecules (TNF-α ELISA) [8]: facilitates presentation
- functional presentation of antigenic peptide [9]: Mediates Functional Presentation
- tumor localization, orthotopic Pan02 [10]: homes to tumors
- tumor localization, orthotopic Pan02 ([10]; listed as MGS5_V2): localized in the tumor
- localization in LLC1 tumor ([11]; listed as SRI_MGS2_V2): successfully localized
- localization in LLC1 tumor ([11]; listed as SRI_MGS5_V5): homes to LLC1 tumors
- tumor accumulation / tumor targeting [12]: accumulate specifically
- non-specific accumulation in the lung and other organs vs acetylated SRI_MGS5_V1 ([12]; ex vivo imaging at 72 H): reduced non-specific accumulation
- less signal in the kidneys compared to SRI_MGS5_V1 ([12]; ex vivo, 72 H): 2.2 fold
- extent of tumor uptake, V1 versus V2 ([12]; mouse, in vivo): roughly the same degree
- less signal in the liver compared to SRI_MGS5_V1 ([12]; mouse, in vivo): 1.6 fold
- lower signal in the lung compared to SRI_MGS5_V1 ([12]; mouse, in vivo): 3 fold
- time to localization at the tumor site ([12]; mouse, in vivo): ≤ 24 h
- tumor signal maintained ([12]; mouse, in vivo): 72 h
- uptake at low temperature ([13]; 4° C.): greatly reduced
- rate of uptake ([13]; at 6 hours, 100 nM dye-labeled peptide): not saturated
- intracellular concentrations ([13]; corresponding to molecules/cell from H358 to H1993): 100 to 800 nM
- internalization ([13]; three human NSCLC cell lines): is internalized
- presentation of encapsulated immunogenic peptide in HLA class I molecules (IFNγ ELISA) [14]: facilitates presentation
- presentation of encapsulated immunogenic peptide in HLA class I molecules (TNF-α ELISA) [14]: facilitates presentation
- accumulation in autophagic vesicles [15]: Comparable results
- cell viability ([16]; 72 hours, concentrations as high as 250 μM): No significant loss of viability
- toxicity of uptake ([16]; H1993 cells): not toxic
- binding (and internalization) in Pan02 cells [17]: shown to bind; also recorded: binds
- binding (and internalization) in Pan02 cells ([17]; listed as MGS5_V2): concentration dependent binding and internalization
- binding to NSCLC lines compared to parental SRI_MGS5_V1 [18]: greater binding affinity; also recorded: increased binding
- discrimination between NSCLC cancer and normal cells in the lung [19]: high discriminating power
- number of molecules internalized [20]: 8×10^5 molecules/cell
- binding in a panel of cancer cell lines [21]: improved binding

Substance: ILPGQDLQYV [H516]
- immunogenic response [22]: highly immunogenic

Substance: SLSAYIIRV [H3L, SLSAYIIRV]
- biophysical properties [23]: hydrophobic, difficult to purify, and unstable

Substance: SLWGSLLML [C166, SLWGSLLML]
- biophysical properties [23]: hydrophobic, difficult to purify, and unstable

Substance: SMYRVFEVGV [H250, measles virus hemagglutinin peptide, HLA class I (A*02:01) restricted]
- immunogenic response [22]: strong CD8 specific IFNγ response; also recorded: strong CD8 specific IFNy response

Substance: SRI_MGS5_V1: parental tumor-targeting peptide, dimer comprising LQWRRDDNVHNFGVWARYRL (SEQ ID NO:2) (also: dimer) [reference compound]
- accumulation in cancer cells [24]: selectively accumulate
- binding to normal human bronchial epithelial cells [25]: limited binding
- off-tumor signal in vivo ([12]; 24 H): significant signal along the dorsal side
- tumor accumulation / tumor targeting [12]: accumulate specifically
- extent of tumor uptake, V1 versus V2 ([12]; mouse, in vivo): roughly the same degree
- time to localization at the tumor site ([12]; mouse, in vivo): ≤ 24 h
- tumor signal maintained ([12]; mouse, in vivo): 72 h
